For 1 compound, major metabolite formed results are on record in patent publication US8207142B2, “Inhibitor of DNA methylation” (priority 2001, dated 2012).

This data set deals with T24 cells. In words: Zebularine metabolites in T24 cells (SAX-10 HPLC). Format: in vitro ADME, human. The following applies: 6 hr incubation. The protocol: ZB, ZB-MP, ZB-DP and ZB-TP correspond, respectively, to Zebularine, 5′-mono, 5′-di- and 5′-triphosphate metabolites. There are two unidentified metabolites, indicated by the symbols ?1 and ?2.
Zebularine metabolites were identified after incubation of human bladder cancer cells (T24) in DMEM+10% FCS medium with antibiotics. Zebularine (10 μM, 1 μCi), specific activity 200 DPM/pmole was used in these experiments. At the end of the incubation, cells were extracted with 60% methanol and aliquots were analyzed by SAX-10 HPLC using a methanolwater gradient as follows: 1-5 min 1% MeOH, 5-25 min gradient to 25% MeOH, 25-35 min isocratic with 25% MeOH and back to 1% MeOH after 10 min. The phosphorylated metabolites were identified by comparison with authentic synthetic standards. Using this methodology formation of metabolites as a function of concentration after a 6 hr incubation period was investigated (FIG. 17). The major metabolite formed was the 5′-triphosphate.

Molecules are shown by their SMILES.

As for `O=c1ncccn1[C@@H]1O[C@H](CO)[C@@H](O)[C@H]1O` [Zebularine, 1-β-ribofuranosyl-1,2-dihydropyrimidin-2-one], the major metabolite formed was 5′-triphosphate.
